According to patent US20260224555A1, “NEW PHENYLQUINOLONE COMPOUND HAVING ANTIBACTERIAL AND ANTI-CANCER FUNCTIONS AND PREPARATION THEREOF” (AlphaMol Science Ltd (Shanghai), priority 2022, published 2026):
Converted amounts (≈) assume the structure as drawn. Read-outs that look alike come from different tables or passages of the source.

Experiments:
Format in all cases: cell-based
[1] = tested on: E. coli ATCC 25922; assay: In vitro antibacterial activity assay (MIC, broth dilution); conditions: Escherichia coli
Excerpt: (§1) The method used to indicate the activity of the compounds in this example is to record the minimum inhibitory concentration (MIC) of the compounds against bacteria. The specific experimental method is as follows:
(§2) 1. The bacterial liquid cultured from a single colony was taken, and diluted into autoclaved CAMHB broth in a ratio of 1:1000, and mixed well.
(§3) 2. The prepared drug solution was filtered through a sterile 0.22 µm syringe filter and placed in a sterile EP tube for later use.
(§4) 3. A 96-well plate was taken, and 20 µL of drug solution ([…]) was added to each well in the first column of the 96-well plate. Then, 180 µL of diluted bacterial liquid was added and mixed well (Perform 3 replicate rows for each drug).
(§5) The same process was performed for the hydrochloride drug.
(§6) 4. 100 μL of diluted bacterial liquid was added to each well in the remaining 11 columns of the 96-well plate. Drugs are the same as above.
(§7) 5. Serial dilution: 100 μL of liquid was taken from the first column to the second column, mixed well, then 100 μL of liquid was taken from the second column to the third column, mixed well, and so on, sequentially diluting down to the last column (column 12). After mixing column 12 well, 100 μL of liquid thereof was discarded. The drug concentration in each well was decreased by two-fold serially (the concentration in the first well is 40 μg/mL).
(§8) 6. Blank CAMHB broth without added bacteria liquid was added to 3 blank wells in the 96-well plate, as negative control.
(§9) 7. The diluted bacterial liquid was added to 3 blank wells in the 96-well plate, as positive control.
(§10) 8. Incubated at 37° C. for 16 hours.
(§11) 9. Results reading: the minimum inhibitory concentration is the minimum drug concentration at which no bacterial growth is visible to the naked eye and without turbidity.

[2] = tested on: S. aureus ATCC 43300; assay: as above; conditions: Staphylococcus aureus
Excerpt: as §1, §2, §3, §4, §5, §6, §7, §8, §9, §10, §11

[3] = tested on: Hela; assay: In vitro anticancer activity test (MTT cell proliferation); conditions: Homo sapiens, read-out: Hela Average inhibition rate %
Experimental: The anticancer activity of the compounds was tested using an in vitro cancer cell tests. The specific test method is as follows:
1. Cell recovery and culture method: the cryovial was taken out from the liquid nitrogen container firstly, soaked directly in 37° C. warm water, and shaked from time to time to let it thaw as soon as possible. Then, the cryovial was transferred to a clean bench, and the lid was open. The cell suspension was taken into a centrifuge tube using a rubber-tipped dropper and more than 10 times the culture medium was added, mixed well, and centrifuged at 50 g for 5 minutes. Then, the supernatant was discarded, complete culture medium containing 10% fetal bovine serum was added to resuspend the cells, the cells was counted, the cell density was adjusted, and then inoculated into a culture bottle. The culture bottle was placed in a cell culture incubator at 5% CO2 and 37° C. The complete culture medium was replaced once the next day and the culture was continued.
2. Cell passaging method: adherent cells in the logarithmic growth phase were placed in a clean bench, the original culture medium was discarded, and washed three times with 1×PBS. An appropriate amount of 0.25% trypsin digestion solution was added to moisten the cells, and then the trypsin solution was aspirated. The cells were placed in a cell culture incubator at 5% CO2 and 37° C. for digestion for a suitable time, and observed under a microscope. When 90% of the cells become round, the cells were moved immediately to the clean bench and complete culture medium was added to terminate digestion. Then, the cells were dislodged by pipetting up and down with a rubber-tipped dropper to single cells. The cells were counted, and the cell density was adjusted. The cells were inoculated into a suitable culture bottle or dish, added enough complete culture medium, and placed in a cell culture incubator at 5% CO2 and 37° C. for static culture.
For suspension cells in the logarithmic phase, the original culture medium was directly centrifuged at 50 g for 5 minutes, the supernatant was discarded, and the cells were washed once with PBS and centrifuged. After discarding the supernatant, the complete culture medium was added and the cells were dispersed using a rubber-tipped dropper. The cells are counted, and the cell density was adjusted. The cells were inoculated into appropriate culture bottles or culture dishes, and sufficient complete culture medium was added, and the cells were cultured in a cell culture incubator at 5% CO2 and 37° C.
3. Cell proliferation assay: cells in good state in logarithmic phase were taken and appropriate amount of the cells was inoculated into 96-well plates according to the cell passage treatment method, with each well containing 180 μL complete medium. After the cells growth was recovered and the number of cells in each well is 5000±500, a drug was added for treatment.
After drug treatment during the experimental time, MTT solution with a final concentration of 0.5 mg/mL was added to each well, and placed in a cell culture incubator at 5% CO2 and 37° C. to allow a fully reaction of MTT with cells. After 4 hours, the solution in the 96-well plate was discarded, 100 µL of DMSO was added, and shaked to dissolve the formazan precipitated at the bottom of the plate, and the absorbance value of samples was detected at a wavelength of 570 nm using a microplate reader. Calculation method of cell viability rate:
Table 4 lists some compounds that have inhibitory effects against both of bacteria and cancer cells. In the table, the inhibitory effects against cancer cells are shown: the average proliferation inhibition rate (%) against cancer cells at the dosage of 40 μM.

[4] = tested on: Staphylococcus aureus ATCC43300; assay: Resistance test of bacteria against compounds (serial induction, 21 days); conditions: period of 21 days, S. aureus ATCC43300
Experimental: This example provides a resistance test of bacteria against compounds, and the specific experimental method is as follows.
1. […] It was ensured that among the 6 final concentrations of the drug diluted into the wells, some were higher than the original MIC of the bacteria and some were lower than the original MIC of the bacteria.
2. Preparation of bacterial liquid: 10 mL of culture medium was taken and added to a sterilized plate using a pipette, then 100 µL of the above-mentioned passaged bacterial liquid was added, and mixed well for later use.
3. The above-mentioned diluted bacterial liquid was taken and added to a 96-well plate using a pipette, 180 μL per well, 3 wells per group, 6 groups in total. 20 μL of drug solution was added to each well (note: it is necessary to replace the pipette tip each time the drug is added), so that the final drug concentrations were […], respectively. The well with 200 μL of diluted bacterial liquid was used as the positive control well, and the well with 200 μL of culture medium was used as the negative control well.
The test object was Staphylococcus aureus (S. aureus).

[5] = ATCC25922, Table 3, read-out: MIC E. coli ATCC 25922
[6] = ATCC43300, Table 3, read-out: MIC S. aureus ATCC 43300
[7] = average proliferation inhibition rate at the dosage of 40 μM
[8] = ATCC25922, Table 4, read-out: E. coli ATCC 25922 MIC
[9] = ATCC43300, Table 4, read-out: S. aureus ATCC 43300 MIC

| SMILES | MIC [1, 5] | MIC [2, 6] | inhibition at 40 µM [3, 7] | MIC [1, 8] | MIC [2, 9] | also measured |
| --- | --- | --- | --- | --- | --- | --- |
| Nc1cc(-c2nc3c(cc2F)c(=O)c(C(=O)O)cn3C2CC2)ccn1.O=CO [Example 56] | 0.1 to 1 µg/mL | 0.1 to 1 µg/mL | – | – | – | – |
| O=C(O)c1cn(C2CC2)c2cc(-c3ccnc(NC(=O)C(F)(F)F)c3)c(F)cc2c1=O [Example 57] | 0.1 to 1 µg/mL (≈ 0.23 to 2.3 µM) | 0.1 to 1 µg/mL (≈ 0.23 to 2.3 µM) | – | – | – | – |
| CS(=N)(=O)c1ccc(-c2cc3c(cc2F)c(=O)c(C(=O)O)cn3C2CC2)cc1 (stereo not shown) [Example 64] | 0.1 to 1 µg/mL (≈ 0.25 to 2.5 µM) | 0.1 to 1 µg/mL (≈ 0.25 to 2.5 µM) | – | – | – | – |
| COc1cc(-c2c(F)cc3c(=O)c(C(=O)O)cn(C4CC4)c3c2OC)ccc1NC(C)=O [Example 66] | 0.1 to 1 µg/mL (≈ 0.227 to 2.27 µM) | 0.1 to 1 µg/mL (≈ 0.227 to 2.27 µM) | – | – | – | – |
| CCn1cc(C(=O)O)c(=O)c2cc(OC)c(-c3ccc(N)nc3)c(C)c21 [Example 74] | 0.1 to 1 µg/mL (≈ 0.283 to 2.83 µM) | 0.1 to 1 µg/mL (≈ 0.283 to 2.83 µM) | – | – | – | – |
| COc1c(-c2ncncn2)c(F)cc2c(=O)c(C(=O)O)cn(C3CC3)c12 [Example 77] | 0.1 to 1 µg/mL (≈ 0.281 to 2.81 µM) | 0.1 to 1 µg/mL (≈ 0.281 to 2.81 µM) | – | – | – | – |
| CCCCCNS(=O)(=O)c1ccc(-c2c(F)cc3c(=O)c(C(=O)O)cn(C4CC4)c3c2OC)cc1 [Example 80] | 0.1 to 1 µg/mL (≈ 0.199 to 1.99 µM) | ≤ 0.1 µg/mL | ≥ 50% | ≤ 1 µg/mL | ≤ 1 µg/mL | – |
| Nc1cnc(-c2cc3c(cc2F)c(=O)c(C(=O)O)cn3C2CC2)nc1 [Example 83] | 0.1 to 1 µg/mL (≈ 0.294 to 2.94 µM) | 0.1 to 1 µg/mL (≈ 0.294 to 2.94 µM) | – | – | – | – |
| COc1c(-c2ccc([S+]([O-])CCO)cc2)c(F)cc2c(=O)c(C(=O)O)cn(C3CC3)c12 (stereo not shown) [Example 86] | 0.1 to 1 µg/mL (≈ 0.224 to 2.24 µM) | ≤ 0.1 µg/mL | ≥ 20% | ≤ 1 µg/mL | ≤ 1 µg/mL | – |
| O=C(O)c1cn(C2CC2)c2c(Cl)c(-c3ccc(S(=O)(=O)NCCO)cc3)c(F)cc2c1=O [Example 89] | 0.1 to 1 µg/mL (≈ 0.208 to 2.08 µM) | ≤ 0.1 µg/mL | ≥ 20% | ≤ 1 µg/mL | ≤ 1 µg/mL | – |
| Nc1cnc(-c2cc3c(cc2F)c(=O)c(C(=O)O)cn3C2CC2)cc1F [Example 91] | 0.1 to 1 µg/mL (≈ 0.28 to 2.8 µM) | 0.1 to 1 µg/mL (≈ 0.28 to 2.8 µM) | – | – | – | – |
| CC(=O)Nc1ccc(-c2cc3c(cc2F)c(=O)c(C(=O)O)cn3C2CC2)nc1 [Example 93] | – | – | – | – | – | inhibition at 40 µM [3]: ≥ 20%; MIC ([1]; ATCC25922, read-out: E. coli ATCC 25922 MIC): ≤ 1 µg/mL; MIC ([1]; ATCC25922, read-out: MIC E. coli ATCC 25922): 0.1 to 1 µg/mL (≈ 0.262 to 2.62 µM); MIC ([2]; ATCC43300, read-out: MIC S. aureus ATCC 43300): 0.1 to 1 µg/mL (≈ 0.262 to 2.62 µM); MIC ([2]; ATCC43300, read-out: S. aureus ATCC 43300 MIC): ≤ 1 µg/mL |
| O=C(CCl)Nc1cnc(-c2cc3c(cc2F)c(=O)c(C(=O)O)cn3C2CC2)cn1 [Example 96] | ≤ 0.1 µg/mL | ≤ 0.1 µg/mL | – | – | – | – |
| O=C(O)c1cn(C2CC2)c2cc(-c3ccc4c(c3)CNS4(=O)=O)c(F)cc2c1=O [Example 107] | 0.1 to 1 µg/mL (≈ 0.241 to 2.41 µM) | ≤ 0.1 µg/mL | ≥ 20% | ≤ 1 µg/mL | ≤ 1 µg/mL | – |
| COc1c(-c2ccc(S(N)(=O)=O)c([N+](=O)[O-])c2)c(F)cc2c(=O)c(C(=O)O)cn(C3CC3)c12 [Example 110] | ≤ 0.1 µg/mL | ≤ 0.1 µg/mL | – | – | – | – |
| N#Cc1cc(-c2cc3c(cc2F)c(=O)c(C(=O)O)cn3C2CC2)ccc1S(=O)(=O)NCCCC(F)(F)F [Example 111] | 0.1 to 1 µg/mL (≈ 0.186 to 1.86 µM) | 0.1 to 1 µg/mL (≈ 0.186 to 1.86 µM) | – | – | – | – |
| O=C(O)c1cn(C2CC2)c2cc(-c3ccc4c(c3)S(=O)(=O)NC4)c(F)cc2c1=O [Example 113] | ≤ 0.1 µg/mL | ≤ 0.1 µg/mL | ≥ 20% | ≤ 1 µg/mL | ≤ 1 µg/mL | – |
| C#CCNS(=O)(=O)c1ccc(-c2cc3c(cc2F)c(=O)c(C(=O)O)cn3C2CC2)cc1[N+](=O)[O-] [Example 116] | 0.1 to 1 µg/mL (≈ 0.206 to 2.06 µM) | 0.1 to 1 µg/mL (≈ 0.206 to 2.06 µM) | – | – | – | – |
| CCCCCCCNS(=O)(=O)c1ccc(-c2cc3c(cc2F)c(=O)c(C(=O)O)cn3C2CC2)cn1 [Example 128] | 1 to 8 µg/mL (≈ 1.99 to 15.9 µM) | ≤ 0.1 µg/mL | ≥ 20% | ≥ 1 µg/mL | ≤ 1 µg/mL | – |
| COc1c(-c2ccnc(CO)c2)c(F)cc2c(=O)c(C(=O)O)cn(C3CC3)c12 [Example 148] | ≤ 0.1 µg/mL | 1 to 8 µg/mL (≈ 2.6 to 20.8 µM) | ≥ 20% | ≤ 1 µg/mL | ≥ 1 µg/mL | – |
| Nc1cc(-c2c(F)cc3c(=O)c(C(=O)O)cn(C4CC4)c3c2Cl)ccn1 [Example 151] | ≤ 0.1 µg/mL | ≤ 0.1 µg/mL | ≥ 20% | ≤ 1 µg/mL | ≤ 1 µg/mL | – |
| CN[C@H](CC(C)C)C(=O)N[C@H]1C(=O)N[C@@H](CC(N)=O)C(=O)N[C@H]2C(=O)N[C@H]3C(=O)N[C@H](C(=O)N[C@H](C(=O)O)c4cc(O)cc(O)c4-c4cc3ccc4O)[C@H](O)c3ccc(c(Cl)c3)Oc3cc2cc(c3O[C@@H]2O[C@H](CO)[C@@H](O)[C@H](O)[C@H]2O[C@H]2C[C@](C)(N)[C@H](O)[C@H](C)O2)Oc2ccc(cc2Cl)[C@H]1O [vancomycin] | – | – | – | – | – | MIC at the end of the resistance experiment [4]: 4 µg/mL |
